Measurements: patent US9642861B2, “Methods of treating oral mucositis” (priority 2006, dated 2017)
Entries after “also recorded” stand apart in the source; their conditions may differ.

What was measured:
[1] = ACT-03 (Example 2): weights and survival; format: in vivo, Syrian Golden Hamsters; details: for Survival (animal status in score table): individual animal, by day 6
From the text: All animals were weighed daily and their survival recorded, in order to assess possible differences in animal weight among treatment groups as an indication for mucositis severity and/or possible toxicity resulting from the treatments.
(§1) All seventy-two (72) male Syrian Golden Hamsters were given an acute radiation dose of 40 Gy directed to their left buccal cheek pouch. This was accomplished by anesthetizing the animals and everting the left buccal pouch, while protecting the rest of the animal with a lead shield. Test materials were given either topically or by ip injection twice daily as detailed in Table 5. Mucositis was evaluated clinically starting on day 6, and continuing on alternate days until day 28. The study timeline is depicted in FIG. 7. Dose levels were determined based on the results of a previous acute toxicity study (data not published), and in the prior mucositis study of Example 1, shown in Table 5.
Male LVG Syrian Golden Hamsters (Charles River Laboratories), aged 5 to 6 weeks, with average body weight of […] at study commencement, were used. Animals were individually numbered using an ear punch and housed in small groups of approximately 8 animals per cage. Animals were acclimatized prior to study commencement. During this period of 3 days, the animals were observed daily in order to reject animals that presented in poor condition.
The significance of these differences was evaluated by calculating the mean area under the curve for the percentage weight gain for each animal and comparing the groups using a One-Way ANOVA test. There were significant differences between the vehicle control group and the group treated with M40403 at 30 mg/kg/dose once daily from day −1 to day 3 (P=0.039), he group treated with M40403 at 3 mg/kg/dose twice daily from day −1 to day 3 (P=0.040), the group treated with M40403 at 10 mg/kg/dose twice daily from day −1 to day 3 (0.018), the group treated with M40403 at 30 mg/kg/dose twice daily from day −1 to day 3 (P<0.001), the group treated with M40403 at 30 mg/kg/dose once daily from day 0 to day 3 (P=0.009) and the group treated with M40403 at 30 mg/kg/dose twice daily from day 0 to day 3 (P=0.002).

[2] = system: oral mucositis induced in hamsters by acute radiation (40 Gy to left buccal cheek pouch); test: ACT-02 (Example 1): acute radiation model of oral mucositis in hamsters, mucositis scoring; format: in vivo, Syrian Golden Hamsters; design: peak mucositis score (mean daily score): scale not given here
From the text: The objective of this study is to evaluate the effect of M40403, administered by either ip or topical routes, with 2 different schedules, on the frequency, severity and duration of oral mucositis induced in hamsters by acute radiation.
The acute radiation model in hamsters, developed by the Principal Investigator, has proven to be an accurate, efficient and cost-effective technique to provide a preliminary evaluation of anti-mucositis compounds (9). The course of mucositis in this model is well defined and results in peak scores approximately 14-16 Days following radiation. The acute model has little systemic toxicity, resulting in few hamster deaths, thus permitting the use of smaller groups (N=7-8) for initial efficacy studies. It has also been used to study specific mechanistic elements in the pathogenesis of mucositis. Molecules that show efficacy in the acute radiation model may be further evaluated in the more complex models of fractionated radiation, chemotherapy, or concomitant therapy.
In this study, an acute radiation dose of 40 Gy on day 0 was administered locally to the cheek pouch. Clinically significant mucositis was observed on days 12 through 28.
Forty-eight male Syrian Golden Hamsters were divided randomly into 6 groups of 8 animals and given an acute radiation dose of 40 Gy directed to their left buccal cheek pouch. This was accomplished by anesthetizing the animals and everting the left buccal pouch, while protecting the rest of the animal with a lead shield. Test materials were given topically or by ip injection twice daily as detailed in Table 1. Mucositis was evaluated clinically starting on Day 6, and continued on alternate days until day 28.
The grade of mucositis was scored, beginning on day 6, and for every second day thereafter, through and including day 28 (for scoring scheme, see Table 2 and FIG. 2). The effect on mucositis of each drug treatment compared to ip vehicle-treated controls was assessed according to the following parameters:
The difference in the number of days hamsters in each group have ulcerative (score≧3) mucositis.
On each evaluation day, the number of animals with a blinded mucositis score of ≧3 in each drug treatment group was compared to the vehicle-treated control group. Differences were compared on a cumulative basis and statistical significance was determined by chi-square analysis. Efficacy, in this analysis, is defined as a significant reduction in the number of days that a group of animals had ulcerations (scores ≧3) when compared to the control group.
For each evaluation day the scores of the control group were compared to those of the treated groups using non-parametric rank sum analysis. Treatment success was considered as a statistically significant lowering of scores in the treated group on 2 or more days from day 6 to day 28.
as §1, with “forty-eight (48)” for “seventy-two (72)”, “1.” for “5.”, “1.” for “7.”, “shown),” for “published),”, “and” for “and in”, “levels” for “prior mucositis study of Example 1,”
Mucositis was induced using a standardized acute radiation protocol. A single dose of radiation (40 Gy/dose) was administered to all animals on day 0. Radiation was generated with a 250 kilovolt potential (15-ma) source at a focal distance of 50 cm, hardened with a 0.35 mm Cu filtration system. Irradiation targeted the left buccal pouch mucosa at a rate of 3.2 Gy/minute. Prior to irradiation, animals were anesthetized with an intra-peritoneal injection of Ketamine (160 mg/kg) and Xylazine (8 mg/kg). […]

[3] = group 2: ip 3 mg/kg bid day −1 to 15
[4] = group 3: ip 30 mg/kg bid day −1 to 15
[5] = group 4: top 3 mg/ml bid, 0.2 ml per dose, day −1 to 15
[6] = group 5: top 30 mg/ml bid, 0.2 ml per dose, day −1 to 15
[7] = group 6: ip 30 mg/kg bid day −1 to 3

[Cl-].[Cl-].[Mn+2].c1cc2nc(c1)CN[C@@H]1CCCC[C@H]1NCCN[C@@H]1CCCC[C@H]1NC2 [M40403]
deaths during the study, all on the day of radiation (Day 0) ([1]; 30 mg/kg once daily day 0 to 3): Two | deaths during the study, all on the day of radiation (Day 0) ([1]; 30 mg/kg once daily day −1 to 3): Two | deaths during the study, all on the day of radiation (Day 0) ([1]; 30 mg/kg once daily on day 0 and day 7 (so in the source)): One | deaths during the study, all on the day of radiation (Day 0) ([1]; 30 mg/kg twice daily day −1 to 3): Two | survival status noted in Animal Weights table ([1]; first study, group 9 (30 mg/kg/dose twice daily on day 0 and on day 7), animal 70, day 0): dead | Survival (animal status in score table) ([1]; group 2): dead | Survival (animal status in score table) ([1]; group 5): dead | Survival (animal status in score table) ([1]; group 6): dead | toxicity based on observations of body weight ([1]; hamster, in vivo, ip): appear to show some toxicity | P, One-Way ANOVA on mean AUC of percentage weight gain v vehicle control ([1]; hamster, in vivo, ip, 3 mg/kg): 0.040 | average weight gain, % of starting weight during the study (day 28) ([1]; hamster, in vivo, ip, 3 mg/kg): 59.3% | P, One-Way ANOVA on mean AUC of percentage weight gain v vehicle control ([1]; hamster, in vivo, ip, 10 mg/kg): 0.018 | average weight gain, % of starting weight during the study (day 28) ([1]; hamster, in vivo, ip, 10 mg/kg): 56.2% | statistically significant reduction in growth rate v control ([1]; hamster, in vivo, ip, 30 mg/kg): did not exhibit some statistically significant reductions in growth rate | Survival (animal recorded dead in weight table) ([1]; second study, group 6, animal 45 on day 0, animal 46 on day 1): dead | Chi Sq v control, days with mucositis score >=3 [2, 3]: 0.3440 | Days <3 (animal days with a mucositis score below 3) [2, 3]: 126 | Days >=3 (animal days with a mucositis score of 3 or more) [2, 3]: 66 | day of peak mucositis score [2, 3]: 18 days | peak mucositis score (mean daily score) [2, 3]: 2.8 | progression of mucositis severity compared with control group [2, 3]: very similar to that observed in the control group | Chi Sq v control, days with mucositis score >=3 [2, 4]: 0.9890 | Days <3 (animal days with a mucositis score below 3) [2, 4]: 96 | Days >=3 (animal days with a mucositis score of 3 or more) [2, 4]: 56 | day of peak mucositis score [2, 4]: 18 days | peak mucositis score (mean daily score) [2, 4]: 3.0 | progression of mucositis severity compared with control group [2, 4]: indistinguishable from that observed in groups 1 and 2 | progression of mucositis severity compared with control group ([2]; group 4: top 3 mg/ml bid day −1 to 15): closely paralleled those in the control group | Chi Sq v control, days with mucositis score >=3 [2, 5]: 1.6760 | Days <3 (animal days with a mucositis score below 3) [2, 5]: 119 | Days >=3 (animal days with a mucositis score of 3 or more) [2, 5]: 73 | progression of mucositis severity compared with control group ([2]; group 5: top 30 mg/ml bid day −1 to 15): showed a reduction of mucositis severity on day 10; also recorded: only slightly less than those in the control group | Chi Sq v control, days with mucositis score >=3 [2, 6]: 0.136 | Days <3 (animal days with a mucositis score below 3) [2, 6]: 128 | Days >=3 (animal days with a mucositis score of 3 or more) [2, 6]: 64 | Chi Sq v control, days with mucositis score >=3 [2, 7]: 7.83 | Days <3 (animal days with a mucositis score below 3) [2, 7]: 120 | Days >=3 (animal days with a mucositis score of 3 or more) [2, 7]: 24 | day of peak mucositis score [2, 7]: 14 days | peak mucositis score (mean daily score) [2, 7]: 3.0 | progression of mucositis severity compared with control group ([2]; group 6: ip 30 mg/kg bid day −1 to 3, from day 16 to day 28): decreased much more rapidly than the control group | effect of topical dosing on weight and mucositis severity ([2]; topical dosing, 3 or 30 mg/ml bid day −1 to 15, formulation used here): did not appear to have any effect on either weight or mucositis severity
